Experiments:
MCF-7 cells = test: Breast cancer cell line proliferation inhibitory activity (CellTiter-Glo 2.0); format: cell-based; conditions: Homo sapiens, MCF7, 120 hours
How it was run: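 MCF-7 cells exposed to a 12-point, 3-fold dilution series (final 0.00005–10 μM) for 120 h at 37 °C. Viability read by CellTiter-Glo 2.0 luminescence, expressed as percent of vehicle-treated cells. GI50 (nM) derived from the curves.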

CDK6 cyclin D1 = biological target: T1, CDK6 cyclin D1 (Homo sapiens, UniProt Q00534); test: CDK6 enzyme inhibitory ability (Reaction Biology); format: biochemical; conditions: measured in Reaction Biology (USA)
T1 construct: purchased Reaction Biology (USA), contract assay
Procedure: In order to evaluate the CDK4 and CDK6 enzyme inhibitory activities of the example compounds according to the present invention, IC5O (nM) was measured for the CDK4 cyclin D1 and CDK6 cyclin D1 enzymes in Reaction Biology (USA), and the results were shown in Table 3 below.

human FLT3-ITD enzyme = biological target: T2, human FLT3-ITD enzyme (Homo sapiens, UniProt P36888); test: FLT3 enzyme inhibitory ability (ADP-Glo kinase assay); format: biochemical; conditions: human FLT3-ITD enzyme 10 ng, ATP 10 μM, 25° C. 1 hour
T2 sequence (P36888 1-993): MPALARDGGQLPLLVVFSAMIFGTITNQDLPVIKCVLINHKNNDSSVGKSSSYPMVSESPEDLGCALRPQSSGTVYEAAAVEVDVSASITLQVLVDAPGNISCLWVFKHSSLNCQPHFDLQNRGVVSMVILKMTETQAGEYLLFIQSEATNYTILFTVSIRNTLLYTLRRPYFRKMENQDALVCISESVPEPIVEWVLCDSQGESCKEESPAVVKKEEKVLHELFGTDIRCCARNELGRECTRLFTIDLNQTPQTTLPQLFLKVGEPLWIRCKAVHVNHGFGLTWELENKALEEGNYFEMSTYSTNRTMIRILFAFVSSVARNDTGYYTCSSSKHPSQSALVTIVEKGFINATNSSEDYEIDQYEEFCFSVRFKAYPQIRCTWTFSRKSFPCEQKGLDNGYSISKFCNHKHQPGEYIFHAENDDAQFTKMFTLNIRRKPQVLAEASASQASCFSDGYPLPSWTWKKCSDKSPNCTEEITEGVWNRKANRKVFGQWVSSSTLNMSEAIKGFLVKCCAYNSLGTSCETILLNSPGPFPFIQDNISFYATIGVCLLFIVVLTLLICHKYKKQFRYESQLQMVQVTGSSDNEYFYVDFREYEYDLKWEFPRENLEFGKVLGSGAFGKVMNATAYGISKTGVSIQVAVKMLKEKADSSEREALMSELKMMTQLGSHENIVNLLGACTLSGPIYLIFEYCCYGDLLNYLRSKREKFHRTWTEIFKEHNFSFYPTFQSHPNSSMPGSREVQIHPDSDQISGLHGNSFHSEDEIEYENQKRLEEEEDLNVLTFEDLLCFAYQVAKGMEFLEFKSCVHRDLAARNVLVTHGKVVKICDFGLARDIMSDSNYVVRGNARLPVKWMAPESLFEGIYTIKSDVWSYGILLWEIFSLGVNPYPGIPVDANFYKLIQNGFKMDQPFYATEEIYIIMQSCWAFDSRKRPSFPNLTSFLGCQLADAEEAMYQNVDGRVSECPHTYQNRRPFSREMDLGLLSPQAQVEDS
How it was run: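 Purified human FLT3-ITD (10 ng) with 10 μM ATP and specific substrate in 40 mM Tris-HCl pH 7.4, 20 mM MgCl2, 0.5 mg/mL BSA, 50 μM DTT, 1 h at 25 °C. ADP formation read by ADP-Glo luminescence; IC50 (nM) versus solvent-treated control.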

T1 sequence (Q00534 whole entry): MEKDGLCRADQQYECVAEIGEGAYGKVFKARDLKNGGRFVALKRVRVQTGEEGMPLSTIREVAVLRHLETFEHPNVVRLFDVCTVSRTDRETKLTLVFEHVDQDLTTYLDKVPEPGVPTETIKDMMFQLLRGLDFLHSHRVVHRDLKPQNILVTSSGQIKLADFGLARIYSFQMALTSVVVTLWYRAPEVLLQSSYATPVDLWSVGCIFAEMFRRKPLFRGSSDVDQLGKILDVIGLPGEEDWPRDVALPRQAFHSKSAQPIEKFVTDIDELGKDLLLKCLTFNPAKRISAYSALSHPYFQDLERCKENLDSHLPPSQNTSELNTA
T1 sequence (P24385 whole entry partner): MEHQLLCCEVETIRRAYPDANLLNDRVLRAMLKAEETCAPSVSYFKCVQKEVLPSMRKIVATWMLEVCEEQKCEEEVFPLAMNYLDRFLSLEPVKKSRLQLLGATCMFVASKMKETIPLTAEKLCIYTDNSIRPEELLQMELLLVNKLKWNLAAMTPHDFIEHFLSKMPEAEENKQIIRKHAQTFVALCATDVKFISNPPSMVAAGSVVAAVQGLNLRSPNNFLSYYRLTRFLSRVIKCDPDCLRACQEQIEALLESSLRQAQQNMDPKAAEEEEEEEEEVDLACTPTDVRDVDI

CN1CCN(c2ccc(Nc3nc(N4OCC[C@H]4c4ccccc4)c4cc[nH]c4n3)cc2)CC1 [Example 74, (S)-N-(4-(4-methylpiperazin-1-yl)phenyl)-4-(3-phenylisoxazolidin-2-yl)-7H-pyrrolo[2,3-d]pyrimidin-2-amine]
GI50 (MCF-7 cells): > 500 nM
IC50 (CDK6 cyclin D1): ≥ 250 nM
IC50 (human FLT3-ITD enzyme): > 500 nM
